Key:
wheat = assay: Test B pre/postemergence wheat; assay type: in vivo, Triticum aestivum
Method in brief: (§1)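 Response is a visual 0-to-10 score relative to untreated plants, where 0 means no effect and 10 means complete control, taken twelve to sixteen days after application. Treatments went onto soil at planting and onto foliage of 1- to 4-leaf plants, using a surfactant-containing non-phytotoxic solvent.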

cocklebur = assay: Test B pre/postemergence cocklebur; assay type: in vivo, Xanthium strumarium
Method in brief: as §1

morningglory = assay: Test B pre/postemergence morningglory; assay type: in vivo, Ipomoea hederacea
Method in brief: as §1

sugar beet = assay: Test B pre/postemergence sugar beet; assay type: in vivo, Beta vulgaris
Method in brief: as §1

duck salad = assay: Test B flood test duck salad; assay type: in vivo, Heteranthera limosa
Method in brief: (§2)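 Each value is a visual injury score relative to controls, with 10 meaning complete control and 0 no effect. Evaluation took place twelve to sixteen days after the 2-leaf-stage plants were treated and kept in the greenhouse.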

giant foxtail = assay: Test B pre/postemergence giant foxtail; assay type: in vivo, Setaria faberii
Method in brief: as §1

bedstraw = assay: Test B pre/postemergence bedstraw; assay type: in vivo, Galium aparine; conditions: Preemergence
Method in brief: as §1

bamyardgrass = assay: Test B flood test barnyardgrass; assay type: in vivo, Echinochloa crus-galli
Method in brief: as §2

pigweed = assay: Test B pre/postemergence pigweed; assay type: in vivo, Amaranthus retroflexus
Method in brief: as §1

wild oat = assay: Test B pre/postemergence wild oat; assay type: in vivo, Avena fatua
Method in brief: as §1

purple nutsedge = assay: Test B pre/postemergence purple nutsedge; assay type: in vivo, Cyperus rotundus
Method in brief: as §1

smallflower flatsedge = assay: Test B flood test smallflower flatsedge; assay type: in vivo, Cyperus difformis
Method in brief: as §2

soybean = assay: Test B pre/postemergence soybean; assay type: in vivo, Glycine max
Method in brief: as §1

blackgrass = assay: Test B pre/postemergence blackgrass; assay type: in vivo, Alopecurus myosuroides
Method in brief: as §1

surinam grass = assay: Test B pre/postemergence surinam grass; assay type: in vivo, Brachiaria decumbens
Method in brief: as §1

rape = assay: Test B pre/postemergence rape; assay type: in vivo, Brassica napus
Method in brief: as §1

[1] = Postemergence, Rate 62 g/ha, scale 0 to 10, 0 is no effect, 10 is complete control
[2] = Postemergence, Rate 125 g/ha, scale of 0 to 10 where 0 is no effect and 10 is complete control
[3] = Postemergence, Rate 250 g/ha, scale of 0 to 10, 0 is no effect, 10 is complete control
[4] = Preemergence, Rate 62 g/ha, scale 0 to 10 (0 no effect, 10 complete control)
[5] = Preemergence, Rate 125 g/ha, scale of 0 to 10 where 0 is no effect and 10 is complete control
[6] = Preemergence, Rate 250 g/ha, scale 0 to 10 (0 no effect, 10 complete control)
[7] = Preemergence, Rate 500 g/ha, scale of 0 to 10 where 0 is no effect and 10 is complete control
[8] = Postemergence, Rate 500 g/ha, scale of 0 to 10 where 0 is no effect and 10 is complete control
[9] = Rate 62 g/ha, flood test species, Pre-emergence, visual evaluation after twelve to sixteen days
[10] = Rate 125 g/ha, under heading Pre-emergence, flood test species, visual evaluation after twelve to sixteen days
[11] = Rate 250 g/ha, Pre-emergence (flood test species), scale 0 to 10, 0 is no effect, 10 is complete control
[12] = Rate 500 g/ha, Pre-emergence section of Table B, 0 to 10 scale (0 no effect, 10 complete control)

COCCn1c(=O)on(C(=O)N(c2ccc(F)cc2)C(C)C)c1=O [Compound 627]
Plant response rating, Wheat (wheat; [1]): 2
Plant response rating, Wheat (wheat; [2]): 3
Wheat plant response rating (wheat; [3]): 6
Wheat plant response rating (wheat; [4]): 0
Wheat plant response rating (wheat; [5]): 0
Plant response rating, Wheat (wheat; [6]): 7
Plant response rating, Wheat (wheat; [7]): 5
Plant response rating, Cocklebur (cocklebur; [1]): 0
Plant response rating, Cocklebur (cocklebur; [2]): 0
Cocklebur plant response rating (cocklebur; [3]): 0
Plant response rating, Cocklebur (cocklebur; [8]): 3
Cocklebur plant response rating (cocklebur; [4]): 6
Cocklebur plant response rating (cocklebur; [5]): 6
Plant response rating, Cocklebur (cocklebur; [6]): 6
Plant response rating, Cocklebur (cocklebur; [7]): 7
Plant response rating, Morningglory (morningglory; [1]): 3
Plant response rating, Morningglory (morningglory; [2]): 6
Morningglory plant response rating (morningglory; [3]): 6
Plant response rating, Morningglory (morningglory; [8]): 6
Morningglory plant response rating (morningglory; [4]): 6
Morningglory plant response rating (morningglory; [5]): 6
Plant response rating, Morningglory (morningglory; [6]): 6
Plant response rating, Morningglory (morningglory; [7]): 8
Plant response rating, Sugarbeets (sugar beet; [1]): 0
Plant response rating, Sugarbeets (sugar beet; [2]): 0
Sugarbeets plant response rating (sugar beet; [3]): 0
Sugarbeets plant response rating (sugar beet; [4]): 5
Sugarbeets plant response rating (sugar beet; [5]): 4
Plant response rating, Sugarbeets (sugar beet; [6]): 8
Plant response rating, Sugarbeets (sugar beet; [7]): 9
Plant response rating, Ducksalad (0 to 10 scale, 0 is no effect, 10 is complete control) (duck salad; [9]): 0
Ducksalad plant response rating (0 to 10 scale, 0 is no effect, 10 is complete control) (duck salad; [10]): 0
Ducksalad plant response rating (duck salad; [11]): 0
Ducksalad plant response rating (duck salad; [12]): 1
Plant response rating, Giant foxtail (giant foxtail; [1]): 9
Giant foxtail plant response rating (giant foxtail; [3]): 9
Plant response rating, Giant foxtail (giant foxtail; [8]): 9
Giant foxtail plant response rating (giant foxtail; [4]): 9
Giant foxtail plant response rating (giant foxtail; [5]): 10
Plant response rating, Giant foxtail (giant foxtail; [6]): 10
Plant response rating, Giant foxtail (giant foxtail; [7]): 10
Bedstraw plant response rating (bedstraw; Rate 62 g/ha, scale 0 to 10 (0 no effect, 10 complete control)): 2
Bedstraw plant response rating (bedstraw; Rate 125 g/ha, scale of 0 to 10 where 0 is no effect and 10 is complete control): 2
Plant response rating, Bedstraw (bedstraw; Rate 250 g/ha, scale 0 to 10 (0 no effect, 10 complete control)): 8
Plant response rating, Bedstraw (bedstraw; Rate 500 g/ha, scale of 0 to 10 where 0 is no effect and 10 is complete control): 8
Plant response rating, Barnyardgrass (0 to 10 scale, 0 is no effect, 10 is complete control) (bamyardgrass; [9]): 0
Barnyardgrass plant response rating (0 to 10 scale, 0 is no effect, 10 is complete control) (bamyardgrass; [10]): 0
Barnyardgrass plant response rating (bamyardgrass; [11]): 0
Barnyardgrass plant response rating (bamyardgrass; [12]): 8
Plant response rating, Redroot pigweed (pigweed; [1]): 2
Plant response rating, Redroot pigweed (pigweed; [2]): 3
Redroot pigweed plant response rating (pigweed; [3]): 6
Redroot pigweed plant response rating (pigweed; [4]): 9
Redroot pigweed plant response rating (pigweed; [5]): 9
Plant response rating, Redroot pigweed (pigweed; [6]): 10
Plant response rating, Redroot pigweed (pigweed; [7]): 10
Plant response rating, Wild oats (wild oat; [1]): 0
Plant response rating, Wild oats (wild oat; [2]): 2
Wild oats plant response rating (wild oat; [3]): 6
Wild oats plant response rating (wild oat; [4]): 0
Wild oats plant response rating (wild oat; [5]): 3
Plant response rating, Wild oats (wild oat; [6]): 5
Plant response rating, Wild oats (wild oat; [7]): 5
Plant response rating, Nutsedge (purple nutsedge; [1]): 3
Nutsedge plant response rating (purple nutsedge; [3]): 6
Nutsedge plant response rating (purple nutsedge; [4]): 7
Nutsedge plant response rating (purple nutsedge; [5]): 7
Plant response rating, Nutsedge (purple nutsedge; [6]): 7
Plant response rating, Nutsedge (purple nutsedge; [7]): 10
Plant response rating, S. Flatsedge (0 to 10 scale, 0 is no effect, 10 is complete control) (smallflower flatsedge; [9]): 0
S. Flatsedge plant response rating (0 to 10 scale, 0 is no effect, 10 is complete control) (smallflower flatsedge; [10]): 0
S. Flatsedge plant response rating (smallflower flatsedge; [11]): 0
S. Flatsedge plant response rating (smallflower flatsedge; [12]): 3
Plant response rating, Soybean (soybean; [1]): 2
Plant response rating, Soybean (soybean; [2]): 4
Soybean plant response rating (soybean; [3]): 4
Soybean plant response rating (soybean; [4]): 0
Soybean plant response rating (soybean; [5]): 0
Plant response rating, Soybean (soybean; [6]): 0
Plant response rating, Soybean (soybean; [7]): 5
Plant response rating, Blackgrass (blackgrass; [1]): 8
Plant response rating, Blackgrass (blackgrass; [2]): 8
Blackgrass plant response rating (blackgrass; [3]): 9
Plant response rating, Blackgrass (blackgrass; [8]): 9
Blackgrass plant response rating (blackgrass; [4]): 8
Blackgrass plant response rating (blackgrass; [5]): 8
Plant response rating, Blackgrass (blackgrass; [6]): 9
Plant response rating, Blackgrass (blackgrass; [7]): 10
Plant response rating, B. signalgrass (surinam grass; [1]): 3
Plant response rating, B. signalgrass (surinam grass; [2]): 7
B. signalgrass plant response rating (surinam grass; [3]): 7
Plant response rating, B. signalgrass (surinam grass; [8]): 8
B. signalgrass plant response rating (surinam grass; [4]): 5
B. signalgrass plant response rating (surinam grass; [5]): 5
Plant response rating, B. signalgrass (surinam grass; [6]): 8
Plant response rating, B. signalgrass (surinam grass; [7]): 9
Plant response rating, Rape (rape; [1]): 0
Plant response rating, Rape (rape; [2]): 0
Rape plant response rating (rape; [3]): 0
Plant response rating, Rape (rape; [8]): 5
Rape plant response rating (rape; [4]): 1
Rape plant response rating (rape; [5]): 3
Plant response rating, Rape (rape; [6]): 9
Plant response rating, Rape (rape; [7]): 10

— patent US6737383B1, “Herbicidal oxadiazolidines” (priority 1999, dated 2004)
